Measurements published in patent US12447198B2, “Peptides and fragments for treating diabetes and associated metabolic diseases” (Betavive Ltd., priority 2021, dated 2025).

How the values were obtained:
STZ-treated mice [1] = experiment: Serum insulin and c-peptide levels four weeks after IGF-2 treatment; type: in vivo, mouse; details: four weeks post treatment
Description: Fasting blood glucose levels (mg/dL) were determined using the Accu-Chek Performa glucometer (Roche Diagnostics, Mannheim, Germany). After approximately two weeks of stable hyperglycemia, C57BL/6 STZ mice received exogenous injections of recombinant human IGF-2 (0.3-12 mg/kg/day injection) intraperitoneally for 5-10 consecutive days. During post-treatment follow-up period and upon termination, mice were tested for: fasting glucose, body weight, glucose tolerance test (IPGTT), serum C-peptide level, serum insulin level, and full blood and histological analysis (CBC, Chemistry, Insulin IHC and H&E).
C-peptide is a biomarker used to assess pancreatic beta cell function and is normally produced in equimolar amounts to endogenous insulin. Leighton et al., A Practical Review of C-Peptide Testing in Diabetes, Diabetes Ther. 2017 June; 8 (3): 475-487.

STZ-treated mice [2] = experiment: Intraperitoneal glucose tolerance test 50 days post-treatment; type: in vivo, mouse
Description: In this experiment, four STZ-treated mice were treated with 12,000 μg/kg/day of IGF-2 (four injections of 3000 μg/kg/day) 5 days and two mice were treated for 10 days. A glucose tolerance test was performed 50 days post-treatment with IGF-2 by challenging the treated mice with a 2 grams/kg dose of glucose and determining the blood glucose level over a 180 minute time course. The blood glucose curves of the treated mice were compared to results for a saline control, and normal (nondiabetic) obese and normal (nondiabetic) lean mice based on published literature (Jorgensen et al., J. Am Assoc. Lab. Animal Sci 2017 56(1): 95-97).

STZ-treated mice [3] = experiment: Pancreas histology and insulin immunohistochemical staining of islets; type: in vivo, mouse
Description: FIG. 21 depicts pancreas histology results on STZ-treated mice. […] The non-control mice were treated once a day for 10 days with a 3000 μg/kg dose of IGF-2. The mice were sacrificed on day 35 and pancreas cells were assessed as being insulin positive or negative.

[4] = test system: human pancreatic islet cells; experiment: Insulin secretion of human pancreatic islet cells in response to a glucose pulse; type: cell-based; details: 50 nM for four days
db/db mice [5] = experiment: 14 hour fasting blood glucose in db/db mice treated with IGF-2; type: in vivo, mouse
Description: db/db mice are bred to have a leptin deficiency, increasing susceptibility of the mice to obesity, insulin resistance, and type 2 diabetes (T2D).
In this experiment, one group of db/db mice was injected with 3000 μg/kg/day of IGF-2 for 68 days, a second group of db/db mice was injected with 12000 μg/kg/day of IGF-2 for 66 days, and a third group of db/db mice was injected with saline once a day for 68 days.
In one experiment (left panel), one group of db/db mice was injected with a daily dose of 12000 μg/kg of IGF-2 divided in two injections per day for 70 days, while another group of db/db mice was injected with saline. […] In another experiment (right panel), one group of db/db mice was injected with a daily dose of 12000 μg/kg of IGF-2 divided in two injections per day for 35 days, while another group of db/db mice was injected with saline.
In one exemplary experiment, db/db mice were treated with a 12,000 μg/kg daily dose for 70 days with 70 days of follow up (during which IGF-2 was not administered). All the treated mice maintained normoglycemia for at least 50 days following treatment. In another exemplary experiment, db/db mice were treated with a 12,000 μg/kg daily dose for 35 days with 35 days of follow up (during which IGF-2 was not administered). All the treated mice maintained normoglycemia for 35 days following treatment.

db/db mice [6] = experiment: Histopathology and immunohistochemical staining of pancreas islet cells in db/db mice; type: in vivo, mouse; details: sacrificed 70 days after the end of treatment
Description: FIG. 27 provides results of histopathology and immunohistochemical studies showing the number of pancreas islet cells that test positive for insulin (left panel) and glucagon (right panel) in db/db mice. In this experiment, one group of db/db mice was injected with 12000 μg/kg of IGF-2 on each of 70 consecutive days, a second group of db/db mice was injected with saline, and a third group of db/db mice was a naïve control group. The mice were sacrificed for pathology 70 days after the end of the initial 70 day treatment.
In this experiment, one group of db/db mice (labeled X4) was injected with 12000 μg/kg of IGF-2 on each of 70 consecutive days, a second group of db/db mice (labeled X1) was injected with 3000 μg/kg of IGF-2 on each of 70 consecutive days, and a third group of db/db mice (labeled control) was injected with saline. The mice were sacrificed for pathology 70 days after the end of the initial 70 day treatment. […] The control panels show a positive stain for insulin, which increases in intensity in the 3000 μg/kg/day mice, and increases again in intensity in the 12,000 μg/kg/day mice.

β-MIN6 cells = experiment: Insulin secretion of β-MIN6 cells following glucose induction; type: cell-based, mouse; details: 1 week treatment; IGF-2 5 nM, 20 nM, 80 nM
Source text: β-MIN6 cells serve as an in vitro model of mouse pancreatic islets. β-MIN6 cells were used as an in vitro model to measure the effects of treatment with IGF-2.

insulin-like growth factor 2 [IGF-2]
increase in c-peptide levels (STZ-treated mice [1]; four STZ-treated mice): 12 fold | increase of serum insulin compared to STZ treated control mice (STZ-treated mice [1]; permanently cured mice): 50% | number of IGF-2-treated mice permanently cured (STZ-treated mice [2]; 12,000 μg/kg/day, four mice 5 days and two mice 10 days): Five | glucose levels in the glucose tolerance test (STZ-treated mice [2]; 2 grams/kg glucose, 50 days post-treatment, Mouse O1, not permanently cured): higher than the normal obese mouse | response to the glucose tolerance test (blood glucose over 180 minutes) (STZ-treated mice [2]; 2 grams/kg glucose, 50 days post-treatment, the five permanently cured mice): fell between the glucose tolerance results from the literature for non-diabetic obese mice and non-diabetic lean mice | number of functional beta cells (STZ-treated mice [3]; 3000 μg/kg once a day for 10 days, sacrificed on day 35, permanently cured mice): almost four fold increase | number of cells that test positive for insulin (STZ-treated mice [3]; 3000 μg/kg once a day for 10 days, sacrificed on day 35, permanently cured vs non-permanently cured and saline control): significant increase | level of insulin in pancreas islets as compared to a naïve mouse (immunohistochemical staining) (STZ-treated mice [3]; non-permanently cured mouse): lower level of insulin in its pancreas islets | level of insulin in pancreas islets as compared to a naïve mouse (immunohistochemical staining) (STZ-treated mice [3]; permanently cured mouse): higher level of insulin in its pancreas islets | increase of insulin secretion in response to a glucose pulse compared to untreated cells [4]: ~50% | time following treatment for which all the treated mice maintained normoglycemia (db/db mice [5]; 12,000 μg/kg daily dose for 35 days, 35 days of follow up): 35 days | time following treatment for which all the treated mice maintained normoglycemia (db/db mice [5]; 12,000 μg/kg daily dose for 70 days, 70 days of follow up): at least 50 days | 14 hour fasting blood glucose levels (db/db mice [5]; FIG. 25 left panel, 12000 μg/kg daily in two injections per day for 70 days): reduced blood glucose levels (14 hour fasting blood glucose levels) to a normal range | 14 hour fasting blood glucose levels (db/db mice [5]; FIG. 25 right panel, 12000 μg/kg daily in two injections per day for 35 days): reduced blood glucose levels (14 hour fasting blood glucose levels) to a normal range | 14 hour fasting blood glucose levels (db/db mice [5]; first group of db/db mice (FIG. 23), 3000 μg/kg/day for 68 days): reduced blood glucose levels (14 hour fasting blood glucose levels) to a normal range | 14 hour fasting blood glucose levels (db/db mice [5]; first group of db/db mice (FIG. 23), 12000 μg/kg/day for 66 days): reduced blood glucose levels (14 hour fasting blood glucose levels) to a normal range | 14 hour fasting blood glucose levels (db/db mice [5]; second group of db/db mice (FIG. 24), 12,000 μg/kg/day, 68 day treatment period): reduced blood glucose levels (14 hour fasting blood glucose levels) to a normal range | increase in the number of insulin-positive cells (db/db mice [6]; 12000 μg/kg on each of 70 consecutive days): more than 50% | insulin positive cells (immunohistochemical staining) (db/db mice [6]; 3000 and 12000 μg/kg on each of 70 consecutive days vs saline): increase in insulin positive cells in a dose-dependent manner | insulin secretion following glucose induction (β-MIN6 cells): increases insulin secretion (following glucose induction) in a dose-dependent manner
